Read-outs that look alike come from different tables or passages of the source.

Broadly, the melting point is the temperature of the solid-liquid transition. Usually GI50 stands for the concentration giving 50% growth inhibition.

For one data set, the target named is T1, Top1 (Homo sapiens, UniProt P11387).
T1 sequence (P11387 1-765): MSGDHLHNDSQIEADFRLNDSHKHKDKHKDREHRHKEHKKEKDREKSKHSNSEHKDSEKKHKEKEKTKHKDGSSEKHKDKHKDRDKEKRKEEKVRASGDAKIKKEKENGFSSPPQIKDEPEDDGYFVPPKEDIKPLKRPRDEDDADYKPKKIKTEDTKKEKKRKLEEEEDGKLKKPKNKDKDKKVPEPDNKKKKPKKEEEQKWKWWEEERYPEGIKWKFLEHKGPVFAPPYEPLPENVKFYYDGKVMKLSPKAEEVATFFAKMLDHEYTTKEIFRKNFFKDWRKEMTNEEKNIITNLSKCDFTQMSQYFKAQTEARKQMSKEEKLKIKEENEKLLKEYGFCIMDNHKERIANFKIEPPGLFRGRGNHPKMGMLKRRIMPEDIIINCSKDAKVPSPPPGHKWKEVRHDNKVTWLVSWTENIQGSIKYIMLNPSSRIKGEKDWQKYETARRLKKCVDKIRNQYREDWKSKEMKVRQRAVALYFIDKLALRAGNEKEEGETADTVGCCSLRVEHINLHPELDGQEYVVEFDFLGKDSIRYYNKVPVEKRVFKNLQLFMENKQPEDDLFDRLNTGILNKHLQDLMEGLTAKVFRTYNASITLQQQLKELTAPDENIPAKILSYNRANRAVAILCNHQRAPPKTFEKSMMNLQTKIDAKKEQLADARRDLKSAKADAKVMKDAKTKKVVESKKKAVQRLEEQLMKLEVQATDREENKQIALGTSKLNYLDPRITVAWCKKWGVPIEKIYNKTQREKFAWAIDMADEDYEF
In words: Top1-mediated DNA cleavage assay. Conditions: for Enzyme Inhibitory Activity Top1: DNA cleavage relative to 1 μM MJ-III-65 (19) and 1 μM camptothecin (18); for Top1 inhibitory activity level: series 1. It is filed as biochemical. Set-up: Top1 inhibitory activity level / Top1 inhibitory activity score: key to the marks not given beside the values.

In the next data set the target is Tdp1 (Homo sapiens, UniProt Q9NUW8). Description: Recombinant Tdp1 assay. It is filed as biochemical.
A further data set has as its target T2, recombinant human TDP2 (Homo sapiens, UniProt O95551).
T2 sequence (O95551 1-362): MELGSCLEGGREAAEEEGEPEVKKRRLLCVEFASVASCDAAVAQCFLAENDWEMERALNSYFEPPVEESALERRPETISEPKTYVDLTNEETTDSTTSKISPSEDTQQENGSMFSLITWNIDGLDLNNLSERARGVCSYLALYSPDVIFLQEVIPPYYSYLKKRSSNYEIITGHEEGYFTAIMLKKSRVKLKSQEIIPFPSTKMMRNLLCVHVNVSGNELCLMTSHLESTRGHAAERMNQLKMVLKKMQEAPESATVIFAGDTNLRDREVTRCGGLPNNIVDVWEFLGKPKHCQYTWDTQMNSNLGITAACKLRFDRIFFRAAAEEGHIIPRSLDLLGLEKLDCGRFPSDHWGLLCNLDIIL
Description: Recombinant Tdp2 assay. It is filed as biochemical.

Another data set has as its system SN12C. In words: NCI-60 cytotoxicity, SN12C. The conditions noted are these: Homo sapiens, read-out: Cytotoxicity (GI50) Renal SN12C.
The subject of the next data set is MCF-7. In words: NCI-60 cytotoxicity, MCF-7. The conditions noted are these: Homo sapiens, MCF7, read-out: Cytotoxicity (GI50) Breast MCF-7.
The subject of a further data set is HOP-62. Description: NCI-60 cytotoxicity, HOP-62. The conditions noted are these: Homo sapiens, HOP-62, read-out: Cytotoxicity (GI50) Lung HOP-62.
In the next data set the test system is SF-539. In words: NCI-60 cytotoxicity, SF-539. Conditions: Homo sapiens, SF-539, read-out: Cytotoxicity (GI50) CNS SF-539.
The subject of the next data set is UACC-62. Description: NCI-60 cytotoxicity, UACC-62. Conditions: Homo sapiens, UACC-62, read-out: Cytotoxicity (GI50) Melanoma UACC-62.
A further data set relates to OVCAR-3. Description: NCI-60 cytotoxicity, OVCAR-3. Conditions: Homo sapiens, OVCAR-3, read-out: Cytotoxicity (GI50) Ovarian Ovcar-3.
Data set [1] has as its system NCI-60 panel of human cancer cell lines. In words: NCI-60 screen, mean graph midpoint over all cell lines. The conditions noted are these: for GI50: Homo sapiens.
The subject of the next data set is HCT-116. Description: NCI-60 cytotoxicity, HCT-116. Type of data set: cell-based. Conditions: Homo sapiens, single determinations, Table 2, read-out: Cytotoxicity (GI50) Colon HCT-116.
The subject of another data set is DU-145. Description: NCI-60 cytotoxicity, DU-145. It is filed as cell-based. Conditions: Homo sapiens, single determinations, Table 2, read-out: Cytotoxicity (GI50) Prostate DU-145.
The mark [2] stands for this setting: semiquantitative scale, in duplicate, Table 1, read-out: Enzyme Inhibitory Activity Tdp1.
Setting [3] is: semiquantitative scale, in duplicate, Table 1, read-out: Enzyme Inhibitory Activity Tdp2.
The mark [4] stands for this setting: read-out: Cytotoxicity (GI50) MGM.
[5] abbreviates: determined in duplicate, Table 2, read-out: Enzyme Inhibitory Activity Tdp2 (IC50).
[6] abbreviates: determined in duplicate, Table 2, read-out: Enzyme Inhibitory Activity Tdp1 (IC50).

Sequence of Tdp1 (Q9NUW8 whole entry): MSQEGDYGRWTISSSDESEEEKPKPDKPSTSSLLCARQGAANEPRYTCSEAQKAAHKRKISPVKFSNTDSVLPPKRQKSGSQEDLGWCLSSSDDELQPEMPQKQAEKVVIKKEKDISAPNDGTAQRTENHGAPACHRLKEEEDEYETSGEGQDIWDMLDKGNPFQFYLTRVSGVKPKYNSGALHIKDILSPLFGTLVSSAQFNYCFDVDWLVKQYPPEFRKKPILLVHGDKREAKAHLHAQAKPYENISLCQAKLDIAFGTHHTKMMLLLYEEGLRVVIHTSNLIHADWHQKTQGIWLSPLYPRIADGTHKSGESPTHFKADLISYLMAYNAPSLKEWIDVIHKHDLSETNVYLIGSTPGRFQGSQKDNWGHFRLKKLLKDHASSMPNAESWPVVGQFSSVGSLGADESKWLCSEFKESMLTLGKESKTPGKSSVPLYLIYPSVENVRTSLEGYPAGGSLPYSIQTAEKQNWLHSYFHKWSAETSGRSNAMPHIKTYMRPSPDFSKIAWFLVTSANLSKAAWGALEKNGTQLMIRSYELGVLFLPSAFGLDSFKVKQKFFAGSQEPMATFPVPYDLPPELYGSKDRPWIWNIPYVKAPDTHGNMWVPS
Description for recombinant human TDP2: TDP2 reactions were carried out as described previously with the following modifications. […] Reactions were terminated and treated similarly to whole-cell extract and recombinant Tdp1 reactions (see previous paragraph).

As for `COc1cnc2c(c1)C(=O)c1c-2n(CCCBr)c(=O)c2cc([N+](=O)[O-])ccc12` [Compound 7, 7-Aza-6-(3-bromopropyl)-5,6-dihydro-9-methoxy-3-nitro-5,11-dioxo-11H-indeno[1,2-c]isoquinoline], the melting point fell in the range of 170 to 172 °C. Also, on Top1 (Table 1), the “Enzyme Inhibitory Activity Top1” value is “++”. In addition, the “Top1 inhibitory activity level” value on Top1 was “++”. In addition, the IC50 at Tdp1 (setting [2]) was 12000 to 37000 nM. Also, on recombinant human TDP2 (setting [3]), the IC50 is 37000 to 111000 nM. For the same compound, the GI50 with SN12C stood at 269 nM. The GI50 with MCF-7 was determined as 46 nM. In addition, the GI50 in the data set on HOP-62 is 58 nM. Also, the GI50 in the data set with SF-539 came out at 279 nM. For the same compound, the GI50 in the data set on UACC-62 was 82 nM. Also, the GI50 with OVCAR-3 came out at 248 nM. Also, the GI50 in [1] (setting [4]) stood at 112 nM.
`COc1cnc2c(c1)C(=O)c1c-2n(CCCN2CCN(CCO)CC2)c(=O)c2cc([N+](=O)[O-])ccc12` [Compound 16, 7-Aza-5,6-dihydro-6-[3-(4-(2-hydroxyethyl)piperazin-1-yl)propyl]-9-methoxy-3-nitro-5,11-dioxo-11H-indeno[1,2-c]isoquinoline] registered a melting point of 214 to 216 °C. Further, the “Enzyme Inhibitory Activity Top1” value on Top1 (Table 1) is on record as “+++”. For the same compound, at Top1, the “Top1 inhibitory activity level” value is “+++”. Further, the IC50 at Tdp1 (setting [2]) is above 111000 nM. The IC50 at recombinant human TDP2 (setting [3]) is above 111000 nM. The GI50 with MCF-7 was found to be 142 nM. The GI50 with HOP-62 came out at 2760 nM. The GI50 with SF-539 is 1700 nM. In the data set with UACC-62, the GI50 is 1220 nM. In addition, the GI50 with OVCAR-3 was found to be 1460 nM. For the same compound, in [1] (setting [4]), the GI50 is 1660 nM. Further, the GI50 in [1] (read-out: MGM (GI50 mean graph midpoint)) is 1650 nM.
On to `COc1cnc2c(c1)C(=O)c1c-2n(CCCN2CCNCC2)c(=O)c2cc(Cl)ccc12` [Compound 16e, 3-Chloro-9-methoxy-6-(3-(piperazin-1-yl)propyl)-5H-pyrido[3′,2′:4,5]cyclopenta[1,2-c]isoquinoline-5,11(6H)-dione], for which, on Top1 (Table 2), the “Enzyme Inhibitory Activity Top1” value was “+”. Besides, the IC50 at Tdp1 (read-out: Enzyme Inhibitory Activity Tdp1 (IC50)) was 20200 ± 3700 nM; at recombinant human TDP2 (setting [5]) it was above 111000 nM. In addition, the GI50 was determined as 298 nM in the data set on HCT-116; 242 nM with DU-145; 489 nM in the data set on SN12C; 89 nM in the data set with MCF-7; 200 nM with HOP-62; 1330 nM in the data set on SF-539. Moreover, the GI50 was determined as 1430 nM in the data set on UACC-62, 1430 nM in the data set with OVCAR-3 and 580 nM in data set [1] (setting [4]).
As for `COc1cnc2c(c1)C(=O)c1c-2n(CCCNC(C)C)c(=O)c2cc(Cl)ccc12` [Compound 16f, 3-Chloro-9-methoxy-6-(3-(isopropylamino)propyl)-5H-pyrido[3′,2′:4,5]cyclopenta[1,2-c]isoquinoline-5,11(6H)-dione], the “Enzyme Inhibitory Activity Top1” value on Top1 (Table 2) is given as “++”. For the same compound, the IC50 on Tdp1 (setting [6]) was 33300 ± 4200 nM; at recombinant human TDP2 (setting [5]), above 111000 nM. Further, the GI50 in the data set on HCT-116 amounted to 138 nM; in the data set with DU-145, 173 nM; with SN12C, 417 nM; in the data set on MCF-7, 37 nM; in the data set on HOP-62, 70 nM; in the data set on SF-539, 554 nM. Further, the GI50 came to 303 nM in the data set with UACC-62, 1390 nM in the data set on OVCAR-3 and 380 nM in data set [1] (setting [4]).
With `CCNCCCn1c2c(c3ccc(F)cc3c1=O)C(=O)c1cc(OC)cnc1-2` [Compound 17h, 6-(3-(Ethylamino)propyl)-3-fluoro-9-methoxy-5H-pyrido[3′,2′:4,5]cyclopenta[1,2-c]isoquinoline-5,11(6H)-dione], on Top1 (Table 2), the “Enzyme Inhibitory Activity Top1” value was “++”. For the same compound, the figures for the IC50 on Tdp1 (setting [6]) and at recombinant human TDP2 (read-out: Enzyme Inhibitory Activity Tdp2 (IC50)) were above 111000 nM and 104000 nM, respectively. For the same compound, the GI50 is 136 nM in the data set with HCT-116; 215 nM in the data set with DU-145; 151 nM in the data set on SN12C; 42 nM with MCF-7; 149 nM with HOP-62; 320 nM in the data set with SF-539. Besides, the results for the GI50 (with UACC-62; in the data set on OVCAR-3; in [1] (setting [4])) were 341 nM, 282 nM and 229 nM, respectively.
The compound `COc1cnc2c(c1)C(=O)c1c-2n(CCCN2CCC(N)CC2)c(=O)c2cc([N+](=O)[O-])ccc12` [Compound 17, 6-[3-(4-Aminopiperidin-1-yl)propyl]-7-aza-5,6-dihydro-9-methoxy-3-nitro-5,11-dioxo-11H-indeno[1,2-c]isoquinoline] gave a melting point of 258 to 260 °C. Moreover, the “Enzyme Inhibitory Activity Top1” value at Top1 (Table 1) is reported as “++”. Further, the “Top1 inhibitory activity level” value at Top1 is recorded as “++”. Moreover, on Tdp1 (setting [2]), the IC50 was in the range of 1000 to 12000 nM. Moreover, the IC50 at recombinant human TDP2 (setting [3]) was 1000 to 12000 nM. The “cytotoxicity in the one-concentration preliminary testing” value in [1] (NCI-60 initial 1-concentration test) is on record as “low cytotoxicity”.
With `COc1cnc2c(c1)C(=O)c1c-2n(CCCn2ccnc2)c(=O)c2cc(F)ccc12` [Compound 17b, 6-(3-(1H-Imidazol-1-yl)propyl)-3-fluoro-9-methoxy-5H-pyrido[3′,2′:4,5]-cyclo-penta[1,2-c]isoquinoline-5,11(6H)-dione], the “Enzyme Inhibitory Activity Top1” value on Top1 (Table 2) is “+++”. In addition, the IC50 at Tdp1 (setting [6]) and on recombinant human TDP2 (setting [5]) was above 111000 nM in each case. In addition, the GI50 is below 10 nM with HCT-116; below 10 nM in the data set with DU-145; below 10 nM with SN12C; below 10 nM with MCF-7; below 10 nM with HOP-62; 24 nM in the data set on SF-539. Besides, the GI50 stood at 16 nM in the data set with UACC-62, 43 nM in the data set on OVCAR-3 and 33 nM in data set [1] (setting [4]).
On to `COc1cnc2c(c1)C(=O)c1c-2n(CCCN2CCC(O)CC2)c(=O)c2cc(F)ccc12` [Compound 17d, 3-Fluoro-6-(3-(4-hydroxypiperidin-1-yl)propyl)-9-methoxy-5H-pyrido[3′,2′:4,5]-cyclopenta[1,2-c]-isoquinoline-5,11(6H)-dione], for which the “Enzyme Inhibitory Activity Top1” value on Top1 (Table 2) was “+”. Also, the IC50 at Tdp1 (setting [6]) and on recombinant human TDP2 (setting [5]) was above 111000 nM in each case. The GI50 was determined as 89 nM in the data set with HCT-116; 174 nM in the data set on DU-145; 189 nM in the data set on SN12C; 31 nM in the data set with MCF-7; 142 nM in the data set on HOP-62; 295 nM in the data set on SF-539. The GI50 with UACC-62 was 240 nM; in the data set on OVCAR-3, 254 nM; in [1] (setting [4]) it was 199 nM.

For the origin of these results see patent US10875860B2, “Azaindenoisoquinoline compounds and uses thereof” (Purdue Research Foundation, priority 2016, dated 2020).
